Each structure is given as a SMILES string.

For this test, the target named is T1, SYK kinase (Homo sapiens, UniProt P43405).
T1 construct: purchased Invitrogen, Carlsbad
Put plainly: SYK assay (OMNIA Kinase Assay, Invitrogen). It counts as biochemical. The following applies: SYK Activities; 1 mM ATP, 10 μM Omnia Peptide Substrate Tyr 7, 30° C. The method in brief:
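Continuous-read fluorescence kinase assay: SOX-labelled Tyr 7 peptide (10 μM) with 1 mM ATP and 0.2 mM DTT, 30° C, reaction started by adding SYK. Fluorescence (ex 360/em 485 nm) read every 30 s for 30 min. IC50 from sigmoidal fit of reaction velocity versus inhibitor concentration.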

Broadly, the IC50 is the point on the concentration scale where inhibition reaches its midpoint. `CC(=O)Nc1cc(Nc2nc(-c3c(F)cccc3F)nc3cn[nH]c23)ccc1N1CCN(C(C)=O)CC1` [Example 538, N-(2-(4-acetylpiperazin-1-yl)-5-((5-(2,6-difluorophenyl)-1H-pyrazolo[4,3-d]pyrimidin-7-yl)amino)phenyl)acetamide] yielded an IC50 of 100 to 1000 nM.
As to `CC(C)n1cc(Nc2nc(C3CCC3)nc3cn[nH]c23)cn1` [Example 223, 5-cyclobutyl-N-(1-isopropyl-1H-pyrazol-4-yl)-1H-pyrazolo[4,3-d]pyrimidin-7-amine], the IC50 was less than 10 nM.
Consider `CC(=O)N1CCN(c2ccc(Nc3nc(C4(C)CC4)nc4cn[nH]c34)cc2)CC1` [Example 100, 1-(4-(4-((5-(1-methylcyclopropyl)-1H-pyrazolo[4,3-d]pyrimidin-7-yl)amino)phenyl)piperazin-1-yl)ethan-1-one], for which the IC50 was in the range of 100 to 1000 nM.
To `FCCn1cc(Nc2nc(C3CC3)nc3cn[nH]c23)cn1` [Example 362, 5-cyclopropyl-N-(1-(2-fluoroethyl)-1H-pyrazol-4-yl)-1H-pyrazolo[4,3-d]pyrimidin-7-amine] belongs 10 to 100 nM.
`COCCCn1cc(Nc2nc(-c3cccs3)nc3cn[nH]c23)cn1` [Example 429, N-(1-(3-methoxypropyl)-1H-pyrazol-4-yl)-5-(thiophen-2-yl)-1H-pyrazolo[4,3-d]pyrimidin-7-amine] returned an IC50 of 10 to 100 nM.
To `c1nn(C2CCOCC2)cc1Nc1nc(-c2ccc3[nH]ncc3c2)nc2cn[nH]c12` [Example 178, 5-(1H-indazol-5-yl)-N-(1-(tetrahydro-2H-pyran-4-yl)-1H-pyrazol-4-yl)-1H-pyrazolo[4,3-d]pyrimidin-7-amine] belongs 10 to 100 nM.
Consider `CC(C)n1cc(Nc2nc(C(C)(C)C)nc3cn[nH]c23)cn1` [Example 269, 5-(tert-butyl)-N-(1-isopropyl-1H-pyrazol-4-yl)-1H-pyrazolo[4,3-d]pyrimidin-7-amine], for which the IC50 was 10 to 100 nM.
For `CC(=O)N1CCN(c2ccc(Nc3nc(C4CCC4)nc4cn[nH]c34)cc2)CC1` [Example 192, 1-(4-(4-((5-cyclobutyl-1H-pyrazolo[4,3-d]pyrimidin-7-yl)amino)phenyl)piperazin-1-yl)ethan-1-one], the IC50 is less than 10 nM.
On to `CN1CCC(n2cc(Nc3nc(-c4ncco4)nc4cn[nH]c34)cn2)CC1` [Example 255, N-(1-(1-methylpiperidin-4-yl)-1H-pyrazol-4-yl)-5-(oxazol-2-yl)-1H-pyrazolo[4,3-d]pyrimidin-7-amine], for which the IC50 lay within 100 to 1000 nM.
Turning to `CC(C)(C)n1cc(Nc2nc(-c3ccco3)nc3cn[nH]c23)cn1` [Example 212, N-(1-(tert-butyl)-1H-pyrazol-4-yl)-5-(furan-2-yl)-1H-pyrazolo[4,3-d]pyrimidin-7-amine], the IC50 was 10 to 100 nM.
On to `c1nn(C2CCOCC2)cc1Nc1nc(C2CC2)nc2cn[nH]c12` [Example 118, 5-cyclopropyl-N-(1-(tetrahydro-2H-pyran-4-yl)-1H-pyrazol-4-yl)-1H-pyrazolo[4,3-d]pyrimidin-7-amine], for which the IC50 lay within 10 to 100 nM.
`O=C(c1ccc(Nc2nc(C3CC3)nc3cn[nH]c23)cc1F)N1CCOCC1` [Example 208, (4-((5-cyclopropyl-1H-pyrazolo[4,3-d]pyrimidin-7-yl)amino)-2-fluorophenyl)(morpholino)methanone] had an IC50 of 100 to 1000 nM.
The figure for `CN1CCC(n2cc(Nc3nc(-c4nc5ccccc5s4)nc4cn[nH]c34)cn2)CC1` [Example 459, 5-(benzo[d]thiazol-2-yl)-N-(1-(1-methylpiperidin-4-yl)-1H-pyrazol-4-yl)-1H-pyrazolo[4,3-d]pyrimidin-7-amine] is 10 to 100 nM; for `FCCn1cc(Nc2nc(-c3ccoc3)nc3cn[nH]c23)cn1` [Example 361, N-(1-(2-fluoroethyl)-1H-pyrazol-4-yl)-5-(furan-3-yl)-1H-pyrazolo[4,3-d]pyrimidin-7-amine] it is 10 to 100 nM; for `COc1ccc(Nc2nc(-c3ccccc3NS(C)(=O)=O)nc3cn[nH]c23)cc1OC` [Example 2, N-(2-(7-((3,4-dimethoxyphenyl)amino)-1H-pyrazolo[4,3-d]pyrimidin-5-yl)phenyl)methanesulfonamide] it is 100 to 1000 nM.
Regarding `CC(C)n1cc(Nc2nc(-c3cocn3)nc3cn[nH]c23)cn1` [Example 244, N-(1-isopropyl-1H-pyrazol-4-yl)-5-(oxazol-4-yl)-1H-pyrazolo[4,3-d]pyrimidin-7-amine], the IC50 was less than 10 nM.
`O=C1CCCc2ccc(Nc3nc(-c4ccc5cn[nH]c5c4)nc4cn[nH]c34)cc2N1` [Example 516, 8-((5-(1H-indazol-6-yl)-1H-pyrazolo[4,3-d]pyrimidin-7-yl)amino)-4,5-dihydro-1H-benzo[b]azepin-2(3H)-one] showed an IC50 of 10 to 100 nM.
To `NS(=O)(=O)c1cccc(-c2nc(Nc3ccc4c(c3)NC(=O)CCC4)c3[nH]ncc3n2)c1` [Example 525, 3-(7-((2-oxo-2,3,4,5-tetrahydro-1H-benzo[b]azepin-8-yl)amino)-1H-pyrazolo[4,3-d]pyrimidin-5-yl)benzenesulfonamide] belongs 10 to 100 nM; to `CN1CCC(n2cc(Nc3nc(-c4ccc5cn[nH]c5c4)nc4cn[nH]c34)cn2)CC1` [Example 132, 5-(1H-indazol-6-yl)-N-(1-(1-methylpiperidin-4-yl)-1H-pyrazol-4-yl)-1H-pyrazolo[4,3-d]pyrimidin-7-amine], 10 to 100 nM.
In turn, `COc1ccc(Nc2nc(-c3sccc3C)nc3cn[nH]c23)cc1OC` [Example 51, N-(3,4-dimethoxyphenyl)-5-(3-methylthiophen-2-yl)-1H-pyrazolo[4,3-d]pyrimidin-7-amine] came in with an IC50 of 10 to 100 nM.
The figure for `COc1cccc(-c2nc(Nc3cnn(C4CCN(C(C)(C)C)CC4)c3)c3[nH]ncc3n2)c1` [Example 407, N-(1-(1-(tert-butyl)piperidin-4-yl)-1H-pyrazol-4-yl)-5-(3-methoxyphenyl)-1H-pyrazolo[4,3-d]pyrimidin-7-amine] is 10 to 100 nM; for `COCCCn1cc(Nc2nc(-c3cocn3)nc3cn[nH]c23)cn1` [Example 245, N-(1-(3-methoxypropyl)-1H-pyrazol-4-yl)-5-(oxazol-4-yl)-1H-pyrazolo[4,3-d]pyrimidin-7-amine] it is less than 10 nM; for `CC(C)(C)n1cc(Nc2nc(-c3ccoc3)nc3cn[nH]c23)cn1` [Example 218, N-(1-(tert-butyl)-1H-pyrazol-4-yl)-5-(furan-3-yl)-1H-pyrazolo[4,3-d]pyrimidin-7-amine] it is 10 to 100 nM.
In turn, `CC(C)(O)Cn1cc(Nc2nc(-c3ccc4cn[nH]c4c3)nc3cn[nH]c23)cn1` [Example 449, 1-(4-((5-(1H-indazol-6-yl)-1H-pyrazolo[4,3-d]pyrimidin-7-yl)amino)-1H-pyrazol-1-yl)-2-methylpropan-2-ol] had an IC50 of 10 to 100 nM.
For `CC(c1ccccc1)n1cc(Nc2nc(-c3ccc4cn[nH]c4c3)nc3cn[nH]c23)cn1` (stereo not drawn) [Example 477, 5-(1H-indazol-6-yl)-N-(1-(1-phenylethyl)-1H-pyrazol-4-yl)-1H-pyrazolo[4,3-d]pyrimidin-7-amine], the IC50 was in the range of 100 to 1000 nM.
Consider `COCCCn1cc(Nc2nc(C3CCC3)nc3cn[nH]c23)cn1` [Example 224, 5-cyclobutyl-N-(1-(3-methoxypropyl)-1H-pyrazol-4-yl)-1H-pyrazolo[4,3-d]pyrimidin-7-amine], for which the IC50 lay in the range of 10 to 100 nM.
To `CN1CCC(n2cc(Nc3nc(-c4cccc(NS(C)(=O)=O)c4)nc4cn[nH]c34)cn2)CC1` [Example 264, N-(3-(7-((1-(1-methylpiperidin-4-yl)-1H-pyrazol-4-yl)amino)-1H-pyrazolo[4,3-d]pyrimidin-5-yl)phenyl)methanesulfonamide] belongs 10 to 100 nM; to `OCCn1cc(Nc2nc(-c3ccco3)nc3cn[nH]c23)cn1` [Example 239, 2-(4-((5-(furan-2-yl)-1H-pyrazolo[4,3-d]pyrimidin-7-yl)amino)-1H-pyrazol-1-yl)ethan-1-ol], less than 10 nM.
To `CN1CCC(n2cc(Nc3nc(C4CCC4)nc4cn[nH]c34)cn2)CC1` [Example 206, 5-cyclobutyl-N-(1-(1-methylpiperidin-4-yl)-1H-pyrazol-4-yl)-1H-pyrazolo[4,3-d]pyrimidin-7-amine] belongs less than 10 nM.
Compound `CC(C)(C)n1cc(Nc2nc(-c3cocn3)nc3cn[nH]c23)cn1` [Example 243, N-(1-(tert-butyl)-1H-pyrazol-4-yl)-5-(oxazol-4-yl)-1H-pyrazolo[4,3-d]pyrimidin-7-amine] came in with an IC50 of 10 to 100 nM.
On to `Fc1ccccc1-c1nc(Nc2ccc(N3CCOCC3)c(F)c2)c2[nH]ncc2n1` [Example 24, N-(3-fluoro-4-morpholinophenyl)-5-(2-fluorophenyl)-1H-pyrazolo[4,3-d]pyrimidin-7-amine], for which the IC50 lay in the range of 100 to 1000 nM.
`CN1CCN(c2ccc(Nc3nc(-c4c(F)cccc4F)nc4cn[nH]c34)cc2Cl)CC1` [Example 539, N-(3-chloro-4-(4-methylpiperazin-1-yl)phenyl)-5-(2,6-difluorophenyl)-1H-pyrazolo[4,3-d]pyrimidin-7-amine] gave an IC50 of 10 to 100 nM.
For the compound `CC(C)Cn1cc(Nc2nc(-c3cccc(S(N)(=O)=O)c3)nc3cn[nH]c23)cn1` [Example 428, 3-(7-((1-isobutyl-1H-pyrazol-4-yl)amino)-1H-pyrazolo[4,3-d]pyrimidin-5-yl)benzenesulfonamide], the IC50 lay in the range of 10 to 100 nM.
`COCC(C)(C)n1cc(Nc2nc(-c3ccoc3)nc3cn[nH]c23)cn1` [Example 290, 5-(furan-3-yl)-N-(1-(1-methoxy-2-methylpropan-2-yl)-1H-pyrazol-4-yl)-1H-pyrazolo[4,3-d]pyrimidin-7-amine]: the IC50 was in the range of 100 to 1000 nM.
In turn, `COCCn1cc(Nc2nc(-c3cocn3)nc3cn[nH]c23)cn1` [Example 128, N-(1-(2-methoxyethyl)-1H-pyrazol-4-yl)-5-(oxazol-4-yl)-1H-pyrazolo[4,3-d]pyrimidin-7-amine] returned an IC50 of 100 to 1000 nM.
Compound `c1nn(C2CC2)cc1Nc1nc(-c2ccc3cn[nH]c3c2)nc2cn[nH]c12` [Example 418, N-(1-cyclopropyl-1H-pyrazol-4-yl)-5-(1H-indazol-6-yl)-1H-pyrazolo[4,3-d]pyrimidin-7-amine] gave an IC50 of less than 10 nM.

(Values after patent publication US9637491B2, “Pyrazolo[4,3-D]pyrimidines as kinase inhibitors” (Origenis GmbH, priority 2012, dated 2017).)
